Assay results as given in ChEMBL document CHEMBL4507293 (2021).

What was measured:
[1] = biological target: Casein kinase I isoform gamma-2 (Homo sapiens) (UniProt P78368); settings: Compound concentration 100.0 nM
[2] = biological target: Hormonally up-regulated neu tumor-associated kinase (Homo sapiens) (UniProt P57058); settings: Compound concentration 100.0 nM
[3] = biological target: Mitogen-activated protein kinase kinase kinase 13 (Homo sapiens) (UniProt O43283); settings: Compound concentration 100.0 nM
[4] = biological target: Myotonin-protein kinase (Homo sapiens) (UniProt Q09013); settings: Compound concentration 100.0 nM
[5] = biological target: Proto-oncogene tyrosine-protein kinase ROS (Homo sapiens) (UniProt P08922); settings: Compound concentration 100.0 nM
[6] = biological target: Mast/stem cell growth factor receptor Kit (Homo sapiens) (UniProt P10721); settings: Compound concentration 100.0 nM
[7] = biological target: Ribosomal protein S6 kinase alpha-2 (Homo sapiens) (UniProt Q15349); settings: Compound concentration 100.0 nM
[8] = biological target: Testis-specific serine/threonine-protein kinase 3 (Homo sapiens) (UniProt Q96PN8); settings: Compound concentration 100.0 nM
[9] = biological target: NT-3 growth factor receptor (Homo sapiens) (UniProt Q16288); settings: Compound concentration 100.0 nM
[10] = biological target: Serine/threonine-protein kinase ULK3 (Homo sapiens) (UniProt Q6PHR2); settings: Compound concentration 100.0 nM
[11] = system: Receptor-type tyrosine-protein kinase FLT3 (Homo sapiens), P36888 [D835H]; settings: Compound concentration 100.0 nM
[12] = system: Receptor-type tyrosine-protein kinase FLT3 (Homo sapiens), P36888 [UNDEFINED MUTATION]; settings: Compound concentration 100.0 nM
[13] = biological target: Ephrin type-B receptor 2 (Homo sapiens) (UniProt P29323); settings: Compound concentration 100.0 nM
[14] = biological target: Serine/threonine-protein kinase TNNI3K (Homo sapiens) (UniProt Q59H18); settings: Compound concentration 100.0 nM
[15] = biological target: Ephrin type-A receptor 3 (Homo sapiens) (UniProt P29320); settings: Compound concentration 100.0 nM
[16] = biological target: Non-receptor tyrosine-protein kinase TNK1 (Homo sapiens) (UniProt Q13470); settings: Compound concentration 100.0 nM
[17] = system: Proto-oncogene tyrosine-protein kinase receptor Ret (Homo sapiens), P07949 [V804L]; settings: Compound concentration 100.0 nM
[18] = biological target: Ribosomal protein S6 kinase alpha-5 (Homo sapiens) (UniProt O75582); settings: Compound concentration 100.0 nM
[19] = biological target: Serine/threonine-protein kinase SIK3 (Homo sapiens) (UniProt Q9Y2K2); settings: Compound concentration 100.0 nM
[20] = biological target: Mitogen-activated protein kinase 1 (Homo sapiens) (UniProt P28482); settings: Compound concentration 100.0 nM
[21] = biological target: Casein kinase I isoform gamma-1 (Homo sapiens) (UniProt Q9HCP0); settings: Compound concentration 100.0 nM
[22] = biological target: T1, Muscarinic acetylcholine receptor M1 (Homo sapiens) (UniProt P11229); settings: Compound concentration 10.0 uM
T1 sequence (whole entry): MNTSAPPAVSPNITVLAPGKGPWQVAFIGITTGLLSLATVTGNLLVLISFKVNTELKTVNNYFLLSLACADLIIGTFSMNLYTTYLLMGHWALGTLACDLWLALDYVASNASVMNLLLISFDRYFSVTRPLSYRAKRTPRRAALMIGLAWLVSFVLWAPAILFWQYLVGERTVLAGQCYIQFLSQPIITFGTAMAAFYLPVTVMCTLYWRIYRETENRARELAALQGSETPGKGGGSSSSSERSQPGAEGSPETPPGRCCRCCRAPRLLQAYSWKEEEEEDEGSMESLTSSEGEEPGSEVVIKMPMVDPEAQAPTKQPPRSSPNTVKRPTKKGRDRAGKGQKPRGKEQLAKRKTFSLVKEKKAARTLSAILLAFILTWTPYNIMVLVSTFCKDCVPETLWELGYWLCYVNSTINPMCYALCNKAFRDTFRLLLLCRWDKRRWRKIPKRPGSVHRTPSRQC

[23] = biological target: Phosphatidylinositol 3-kinase catalytic subunit type 3 (Homo sapiens) (UniProt Q8NEB9); settings: Compound concentration 100.0 nM
[24] = biological target: Receptor-interacting serine/threonine-protein kinase 4 (Homo sapiens) (UniProt P57078); settings: Compound concentration 100.0 nM
[25] = biological target: Dual specificity protein kinase CLK2 (Homo sapiens) (UniProt P49760); settings: Compound concentration 100.0 nM
[26] = biological target: Calcium/calmodulin-dependent protein kinase type II subunit gamma (Homo sapiens) (UniProt Q13555); settings: Compound concentration 100.0 nM
[27] = biological target: Homeodomain-interacting protein kinase 4 (Homo sapiens) (UniProt Q8NE63); settings: Compound concentration 100.0 nM
[28] = biological target: Phosphatidylinositol 4-phosphate 5-kinase type-1 alpha (Homo sapiens) (UniProt Q99755); settings: Compound concentration 100.0 nM
[29] = biological target: D(1A) dopamine receptor (Homo sapiens) (UniProt P21728); settings: Compound concentration 10.0 uM
[30] = biological target: Discoidin domain-containing receptor 2 (Homo sapiens) (UniProt Q16832); settings: Compound concentration 100.0 nM
[31] = biological target: Activin receptor type-1 (Homo sapiens) (UniProt Q04771); settings: Compound concentration 100.0 nM
[32] = biological target: D(1B) dopamine receptor (Homo sapiens) (UniProt P21918); settings: Compound concentration 10.0 uM
[33] = biological target: Protein-tyrosine kinase 6 (Homo sapiens) (UniProt Q13882); settings: Compound concentration 100.0 nM
[34] = biological target: Rhodopsin kinase GRK7 (Homo sapiens) (UniProt Q8WTQ7); settings: Compound concentration 100.0 nM
[35] = biological target: Serine/threonine-protein kinase SIK1 (Homo sapiens) (UniProt P57059); settings: Compound concentration 100.0 nM
[36] = system: Epidermal growth factor receptor (Homo sapiens), P00533 [T790M]; settings: Compound concentration 100.0 nM
[37] = biological target: Histamine H1 receptor (Homo sapiens) (UniProt P35367); settings: Compound concentration 10.0 uM
[38] = biological target: Fibroblast growth factor receptor 2 (Homo sapiens) (UniProt P21802); settings: Compound concentration 100.0 nM
[39] = biological target: Tyrosine-protein kinase Fer (Homo sapiens) (UniProt P16591); settings: Compound concentration 100.0 nM
Sequence of Tyrosine-protein kinase Fer (Homo sapiens) (P16591 whole entry, looked up): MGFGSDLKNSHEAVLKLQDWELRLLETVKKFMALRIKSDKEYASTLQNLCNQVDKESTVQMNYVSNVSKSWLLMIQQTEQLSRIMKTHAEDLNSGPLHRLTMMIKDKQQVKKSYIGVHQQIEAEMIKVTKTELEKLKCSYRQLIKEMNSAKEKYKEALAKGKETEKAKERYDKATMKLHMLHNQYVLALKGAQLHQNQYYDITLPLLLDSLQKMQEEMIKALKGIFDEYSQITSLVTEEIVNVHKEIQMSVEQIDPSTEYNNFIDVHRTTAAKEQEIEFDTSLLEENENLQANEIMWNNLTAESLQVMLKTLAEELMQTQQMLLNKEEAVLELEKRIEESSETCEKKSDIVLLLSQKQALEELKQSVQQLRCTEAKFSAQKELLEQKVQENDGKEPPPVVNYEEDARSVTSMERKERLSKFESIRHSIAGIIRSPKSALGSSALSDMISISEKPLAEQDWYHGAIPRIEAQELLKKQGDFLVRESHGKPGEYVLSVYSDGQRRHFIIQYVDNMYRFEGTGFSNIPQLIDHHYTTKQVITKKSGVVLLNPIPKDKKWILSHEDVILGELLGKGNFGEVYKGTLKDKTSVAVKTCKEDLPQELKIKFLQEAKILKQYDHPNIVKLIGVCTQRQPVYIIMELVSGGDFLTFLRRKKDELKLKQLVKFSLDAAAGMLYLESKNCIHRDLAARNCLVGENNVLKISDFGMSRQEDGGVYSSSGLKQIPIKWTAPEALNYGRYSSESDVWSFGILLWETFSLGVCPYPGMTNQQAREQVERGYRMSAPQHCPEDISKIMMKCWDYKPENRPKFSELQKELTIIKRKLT

Sequence of Fibroblast growth factor receptor 2 (Homo sapiens) (P21802 22-821 limits assumed): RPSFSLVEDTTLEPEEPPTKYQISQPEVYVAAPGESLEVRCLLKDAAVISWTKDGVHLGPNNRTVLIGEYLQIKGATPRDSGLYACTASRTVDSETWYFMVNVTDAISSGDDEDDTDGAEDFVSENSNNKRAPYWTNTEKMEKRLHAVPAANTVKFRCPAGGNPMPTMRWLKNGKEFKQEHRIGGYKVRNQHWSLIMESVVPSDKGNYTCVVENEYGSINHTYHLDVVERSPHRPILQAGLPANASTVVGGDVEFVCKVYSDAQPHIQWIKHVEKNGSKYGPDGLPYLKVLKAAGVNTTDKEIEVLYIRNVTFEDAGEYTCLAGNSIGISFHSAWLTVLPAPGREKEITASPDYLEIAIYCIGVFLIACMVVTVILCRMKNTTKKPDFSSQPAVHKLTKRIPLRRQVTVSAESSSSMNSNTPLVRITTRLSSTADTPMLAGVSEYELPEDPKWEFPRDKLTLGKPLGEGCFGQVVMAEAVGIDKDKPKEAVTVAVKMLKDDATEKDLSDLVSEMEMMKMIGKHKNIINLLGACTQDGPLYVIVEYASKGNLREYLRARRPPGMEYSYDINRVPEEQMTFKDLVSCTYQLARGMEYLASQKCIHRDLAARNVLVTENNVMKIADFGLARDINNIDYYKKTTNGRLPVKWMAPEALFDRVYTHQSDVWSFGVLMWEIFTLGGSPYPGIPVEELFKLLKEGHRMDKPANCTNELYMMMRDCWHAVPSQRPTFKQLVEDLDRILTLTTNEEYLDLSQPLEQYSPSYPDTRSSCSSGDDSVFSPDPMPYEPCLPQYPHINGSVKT
Sequence of Casein kinase I isoform gamma-1 (Homo sapiens) (Q9HCP0 whole entry, looked up, canonical isoform): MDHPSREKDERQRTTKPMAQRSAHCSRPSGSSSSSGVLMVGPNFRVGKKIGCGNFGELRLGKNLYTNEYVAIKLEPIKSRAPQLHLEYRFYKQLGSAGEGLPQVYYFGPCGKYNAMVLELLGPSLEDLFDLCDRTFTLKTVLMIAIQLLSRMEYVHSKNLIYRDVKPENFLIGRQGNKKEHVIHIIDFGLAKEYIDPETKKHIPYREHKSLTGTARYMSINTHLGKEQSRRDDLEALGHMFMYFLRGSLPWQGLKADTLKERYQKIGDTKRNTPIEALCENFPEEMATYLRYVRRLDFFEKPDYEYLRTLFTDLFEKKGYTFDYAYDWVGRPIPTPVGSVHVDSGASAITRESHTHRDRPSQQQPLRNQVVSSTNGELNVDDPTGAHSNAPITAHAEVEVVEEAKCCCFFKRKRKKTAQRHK
Sequence of Hormonally up-regulated neu tumor-associated kinase (Homo sapiens) (P57058 whole entry): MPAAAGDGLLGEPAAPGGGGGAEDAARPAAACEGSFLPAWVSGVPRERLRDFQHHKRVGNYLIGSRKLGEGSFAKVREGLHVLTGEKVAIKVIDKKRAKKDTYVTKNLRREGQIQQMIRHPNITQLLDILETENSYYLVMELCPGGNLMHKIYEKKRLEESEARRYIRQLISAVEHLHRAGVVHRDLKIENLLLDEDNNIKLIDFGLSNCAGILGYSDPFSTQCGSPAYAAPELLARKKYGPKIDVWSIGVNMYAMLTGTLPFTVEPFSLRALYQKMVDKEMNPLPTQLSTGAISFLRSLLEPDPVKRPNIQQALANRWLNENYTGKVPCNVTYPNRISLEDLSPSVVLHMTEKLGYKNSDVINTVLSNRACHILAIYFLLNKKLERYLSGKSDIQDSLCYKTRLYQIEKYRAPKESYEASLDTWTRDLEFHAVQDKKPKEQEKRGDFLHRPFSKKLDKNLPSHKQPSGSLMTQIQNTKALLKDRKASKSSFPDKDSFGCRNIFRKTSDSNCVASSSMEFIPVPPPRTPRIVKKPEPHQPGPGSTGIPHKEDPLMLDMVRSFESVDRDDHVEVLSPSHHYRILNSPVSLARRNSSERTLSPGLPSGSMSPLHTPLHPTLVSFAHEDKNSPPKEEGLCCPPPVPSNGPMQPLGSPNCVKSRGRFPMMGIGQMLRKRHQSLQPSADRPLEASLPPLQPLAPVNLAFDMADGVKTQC
Sequence of Ribosomal protein S6 kinase alpha-2 (Homo sapiens) (Q15349 whole entry): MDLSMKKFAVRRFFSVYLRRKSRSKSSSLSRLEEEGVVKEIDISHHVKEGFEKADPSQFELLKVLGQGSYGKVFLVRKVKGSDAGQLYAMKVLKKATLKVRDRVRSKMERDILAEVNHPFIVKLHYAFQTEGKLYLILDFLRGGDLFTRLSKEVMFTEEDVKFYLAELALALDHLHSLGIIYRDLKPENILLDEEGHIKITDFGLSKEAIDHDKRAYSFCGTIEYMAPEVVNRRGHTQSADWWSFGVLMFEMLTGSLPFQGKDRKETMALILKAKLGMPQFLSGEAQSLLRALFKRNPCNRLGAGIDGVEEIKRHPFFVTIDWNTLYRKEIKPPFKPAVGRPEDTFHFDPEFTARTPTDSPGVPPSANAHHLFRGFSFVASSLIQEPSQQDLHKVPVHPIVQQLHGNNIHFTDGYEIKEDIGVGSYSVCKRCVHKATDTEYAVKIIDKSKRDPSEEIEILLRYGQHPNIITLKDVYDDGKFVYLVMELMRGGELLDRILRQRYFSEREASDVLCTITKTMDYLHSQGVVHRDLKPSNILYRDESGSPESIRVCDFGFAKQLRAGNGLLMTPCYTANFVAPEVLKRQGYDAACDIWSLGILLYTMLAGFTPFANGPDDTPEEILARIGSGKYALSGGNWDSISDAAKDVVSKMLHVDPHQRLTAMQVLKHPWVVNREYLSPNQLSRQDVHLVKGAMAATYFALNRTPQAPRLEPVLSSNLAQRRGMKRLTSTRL
Sequence of Discoidin domain-containing receptor 2 (Homo sapiens) (Q16832 whole entry, the tested form may be a part): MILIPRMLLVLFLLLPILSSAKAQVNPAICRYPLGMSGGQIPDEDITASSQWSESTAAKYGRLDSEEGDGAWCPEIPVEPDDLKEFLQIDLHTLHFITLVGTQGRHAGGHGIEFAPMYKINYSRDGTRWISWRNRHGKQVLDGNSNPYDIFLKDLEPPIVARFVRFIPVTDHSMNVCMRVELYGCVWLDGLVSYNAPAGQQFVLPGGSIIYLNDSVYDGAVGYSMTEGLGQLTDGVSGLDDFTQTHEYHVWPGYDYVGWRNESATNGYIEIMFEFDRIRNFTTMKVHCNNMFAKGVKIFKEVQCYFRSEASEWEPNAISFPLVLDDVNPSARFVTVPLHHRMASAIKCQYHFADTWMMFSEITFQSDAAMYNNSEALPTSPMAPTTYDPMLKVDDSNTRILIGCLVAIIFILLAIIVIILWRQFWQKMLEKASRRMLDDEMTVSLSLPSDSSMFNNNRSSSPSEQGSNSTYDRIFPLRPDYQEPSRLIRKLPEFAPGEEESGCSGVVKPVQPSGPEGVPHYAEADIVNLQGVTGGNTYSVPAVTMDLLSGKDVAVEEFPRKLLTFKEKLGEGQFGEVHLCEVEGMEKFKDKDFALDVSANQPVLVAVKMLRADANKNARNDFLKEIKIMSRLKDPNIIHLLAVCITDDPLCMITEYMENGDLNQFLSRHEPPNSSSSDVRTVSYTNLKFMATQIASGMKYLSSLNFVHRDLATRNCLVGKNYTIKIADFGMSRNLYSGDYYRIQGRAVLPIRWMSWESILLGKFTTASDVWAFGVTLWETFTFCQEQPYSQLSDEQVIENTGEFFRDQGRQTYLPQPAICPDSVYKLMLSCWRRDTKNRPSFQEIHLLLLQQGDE
Sequence of Mitogen-activated protein kinase 1 (Homo sapiens) (P28482 whole entry, canonical isoform): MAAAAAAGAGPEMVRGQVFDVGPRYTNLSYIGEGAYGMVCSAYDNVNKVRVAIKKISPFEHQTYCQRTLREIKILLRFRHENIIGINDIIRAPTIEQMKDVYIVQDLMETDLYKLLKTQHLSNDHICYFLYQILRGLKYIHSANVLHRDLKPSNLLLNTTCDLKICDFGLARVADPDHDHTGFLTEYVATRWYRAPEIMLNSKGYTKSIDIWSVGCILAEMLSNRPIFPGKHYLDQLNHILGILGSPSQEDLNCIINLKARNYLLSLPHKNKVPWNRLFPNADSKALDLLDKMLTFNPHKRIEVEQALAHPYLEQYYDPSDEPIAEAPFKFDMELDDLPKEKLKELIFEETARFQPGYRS
Sequence of Testis-specific serine/threonine-protein kinase 3 (Homo sapiens) (Q96PN8 whole entry): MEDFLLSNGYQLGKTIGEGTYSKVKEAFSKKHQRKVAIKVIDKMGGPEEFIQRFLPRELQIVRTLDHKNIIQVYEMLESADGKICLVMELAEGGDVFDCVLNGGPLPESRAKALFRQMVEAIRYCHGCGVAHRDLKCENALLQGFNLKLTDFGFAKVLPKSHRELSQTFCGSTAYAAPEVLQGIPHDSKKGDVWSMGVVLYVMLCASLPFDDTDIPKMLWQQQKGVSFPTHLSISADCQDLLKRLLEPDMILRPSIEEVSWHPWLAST

CC(C)CC(=O)N1CCc2nc(-c3ccc(Br)cc3)nc(N(C)Cc3ccccc3)c2C1 [THPP-1-NC]
inactive: residual activity [1] 86% | residual activity [2] 86% | residual activity [3] 66% | residual activity [4] 87% | residual activity [5] 100% | residual activity [6] 100% | residual activity [7] 100% | residual activity [8] 100% | residual activity [9] 100% | residual activity [10] 89% | residual activity [11] 100% | residual activity [12] 99% | residual activity [13] 80% | residual activity [14] 100% | residual activity [15] 100% | residual activity [16] 100% | residual activity [17] 100% | residual activity [18] 100% | residual activity [19] 100% | residual activity [20] 93% | residual activity [21] 100% | inhibition [22] 4.18% | residual activity [23] 100% | residual activity [24] 100% | residual activity [25] 100% | residual activity [26] 100% | residual activity [27] 61% | residual activity [28] 100% | inhibition [29] 18.5% | residual activity [30] 97% | residual activity [31] 100% | inhibition [32] 19.4% | residual activity [33] 100% | residual activity [34] 74% | residual activity [35] 91% | residual activity [36] 74% | inhibition [37] 12.6% | residual activity [38] 100% | residual activity [39] 100%

COCCOc1nc(-c2ccc(Cl)nc2)nc2c1CN(C(=O)c1ncn3ccccc13)CC2 [THPP-1]
inactive: residual activity [1] 94% | residual activity [2] 78% | residual activity [3] 87% | residual activity [4] 72% | residual activity [5] 100% | residual activity [6] 100% | residual activity [7] 100% | residual activity [8] 100% | residual activity [9] 100% | residual activity [10] 81% | residual activity [11] 100% | residual activity [12] 96% | residual activity [13] 79% | residual activity [14] 100% | residual activity [15] 96% | residual activity [16] 100% | residual activity [17] 100% | residual activity [18] 100% | residual activity [19] 100% | residual activity [20] 95% | residual activity [21] 100% | inhibition [22] -4.03% | residual activity [23] 100% | residual activity [24] 100% | residual activity [25] 100% | residual activity [26] 100% | residual activity [27] 83% | residual activity [28] 100% | inhibition [29] -8.34% | residual activity [30] 100% | residual activity [31] 100% | inhibition [32] -3.46% | residual activity [33] 100% | residual activity [34] 91% | residual activity [35] 100% | residual activity [36] 61% | inhibition [37] 23.9% | residual activity [38] 100% | residual activity [39] 100%
